From publication PMC7158207 (Clinical Pharmacology and Therapeutics, 2019)
In brackets after ≈: the same amount, converted by molar mass. Where a name gives a salt, the structure may show the parent alone. Read-outs that look alike come from different tables or passages of the source.

Experiments:
[1] = Caco-2 apparent passive permeability; assay type: in vitro ADME; settings: human, Caco-2, pH 7.4
[2] = Dose-exposure proportionality in dose-escalating studies; assay type: in vivo, human; settings: based on data of ref 20
[3] = Thermodynamic solubility measurement in FaSSIF pH 6.5 and SGF pH 1.6; assay type: physicochemical; settings: 37 °C, thermodynamic from solid
[4] = cited from earlier work
[5] = after oral administration; cited from earlier work
[6] = cited from earlier work; for AUC fed/fasted ratio / Cmax fed/fasted ratio: erlotinib 150 mg
[7] = ref 36 (dabrafenib), 40 (vemurafenib), 18 (pazopanib); cited from earlier work
[8] = BCS II/IV drugs; cited from earlier work
[9] = single dose, crizotinib 50-300, trametinib 0.125-10, dabrafenib 12-300, gefitinib 50-500 (HV), vemurafenib 240-960, pazopanib 50-2,000 mg
[10] = SGF, pH 1.6, simulated gastric fluid

Row | Papp [1] | solubility at 24 h ([3]; FaSSIF, pH 6.5, fassif) | solubility at 24 h [3, 10] | Compound | Increase in exposure (dose-exposure proportionality) [4, 9] | further results
1 | 15.3 ×10⁻⁶ cm/s | 743 µg/mL (≈ 1650 µM) | – | C[C@@H](Oc1cc(-c2cnn(C3CCNCC3)c2)cnc1N)c1c(Cl)ccc(F)c1Cl [Crizotinib] | Less than proportional | dose proportionality of single-dose PK in the authors' assessment [2]: linear
2 | 12.4 ×10⁻⁶ cm/s | 3.7 µg/mL | 11.7 µg/mL | CC(C)(C)c1nc(-c2cccc(NS(=O)(=O)c3c(F)cccc3F)c2F)c(-c2ccnc(N)n2)s1 [Dabrafenib, Dabrafenib mesylate] | Dose proportional | –
3 | 40.4 ×10⁻⁶ cm/s | 12.4 µg/mL | 166 µg/mL | C#Cc1cccc(Nc2ncnc3cc(OCCOC)c(OCCOC)cc23)c1 [Erlotinib, erlotinib HCl] | – | dose as parent drug in the feces [5]: 1 % of the dose; Increase in exposure (dose-exposure proportionality) ([4]; dosing schedule N.A., imatinib 25-1,000 mg, erlotinib 100-1,000 mg): Dose proportional38; AUC fed/fasted ratio ([6]; first value (first period)): 1.97; Cmax fed/fasted ratio ([6]; first value (first period)): 1.57; AUC fed/fasted ratio ([6]; second value (second period)): 0.93; Cmax fed/fasted ratio ([6]; second value (second period)): 1.15
4 | 10.4 ×10⁻⁶ cm/s | 88.7 µg/mL (≈ 198 µM) | – | COc1cc2ncnc(Nc3ccc(F)c(Cl)c3)c2cc1OCCCN1CCOCC1 [Gefitinib, gefitinib] | Dose proportional | –
5 | 0.21 ×10⁻⁶ cm/s | 35 µg/mL | 5.5 µg/mL | CS(=O)(=O)CCNCc1ccc(-c2ccc3ncnc(Nc4ccc(OCc5cccc(F)c5)c(Cl)c4)c3c2)o1 [Lapatinib, lapatinib ditosylate monohydrate] | – | –
6 | 28.5 ×10⁻⁶ cm/s | 1.2 µg/mL | 1080 µg/mL | Cc1ccc(Nc2nccc(N(C)c3ccc4c(C)n(C)nc4c3)n2)cc1S(N)(=O)=O [Pazopanib, pazopanib hydrochloride (HCl)] | Less than proportional Less than proportional18 | pKa values (acidic) [7]: 10.218
7 | 15.4 ×10⁻⁶ cm/s | – | – | CC(=O)Nc1cccc(-n2c(=O)n(C3CC3)c(=O)c3c(Nc4ccc(I)cc4F)n(C)c(=O)c(C)c32)c1 [Trametinib, trametinib *DMSO solvate] | More than proportional (Cmax proportional)24 | food effect ([6]; poorly water-soluble anticancer drugs): only a modest food effect, if any
8 | 0.11 ×10⁻⁶ cm/s | 5.4 µg/mL (≈ 11 µM) | 0.3 µg/mL (≈ 0.612 µM) | CCCS(=O)(=O)Nc1ccc(F)c(C(=O)c2c[nH]c3ncc(-c4ccc(Cl)cc4)cc23)c1F [Vemurafenib, vemurafenib] | Dose proportional Dose proportional40 | –
9 | – | – | – | O=C1NC(=O)C(c2ccccc2)(c2ccccc2)N1 [phenytoin] | – | absolute bioavailability (F) [8]: > 90%
